These results are taken from ChEMBL document CHEMBL1255197, “Surface plasmon resonance biosensor based fragment screening using acetylcholine binding protein identifies ligand efficiency hot spots (LE hot spots) by deconstruction of nicotinic acetylcholine receptor α7 ligands” (J Med Chem, 2010).

What is called Kd is the free concentration of one partner at which half of the binding sites on the other are occupied at equilibrium, for simple one-to-one binding. Read a low Kd as higher affinity. Usually Ki stands for a measure of affinity in units of concentration, obtained from inhibition or displacement. Read a low Ki as tighter binding.

In test [1] the target is T1, Acetylcholine-binding protein (Lymnaea stagnalis, UniProt P58154).
Description: Binding affinity to Lymnaea stagnalis His6-AChBP expressed in Bac-to-Bac baculovirus expression system by surface plasmon resonance biosensor assay
Test [2] concerns the target T1, Acetylcholine-binding protein. The source holds these as a separate data set.
Description: Displacement of [3H]epibatidine from Lymnaea stagnalis His6-AChBP expressed in Bac-to-Bac baculovirus expression system
Test [3] addresses Neuronal acetylcholine receptor subunit alpha-7 (Homo sapiens, UniProt P36544). Put plainly: biochemical.
Description: Displacement of [3H]-MLA from human alpha7 nAChR expressed in human SH-SY5Y cells

Chain of Neuronal acetylcholine receptor subunit alpha-7 (P36544 whole entry): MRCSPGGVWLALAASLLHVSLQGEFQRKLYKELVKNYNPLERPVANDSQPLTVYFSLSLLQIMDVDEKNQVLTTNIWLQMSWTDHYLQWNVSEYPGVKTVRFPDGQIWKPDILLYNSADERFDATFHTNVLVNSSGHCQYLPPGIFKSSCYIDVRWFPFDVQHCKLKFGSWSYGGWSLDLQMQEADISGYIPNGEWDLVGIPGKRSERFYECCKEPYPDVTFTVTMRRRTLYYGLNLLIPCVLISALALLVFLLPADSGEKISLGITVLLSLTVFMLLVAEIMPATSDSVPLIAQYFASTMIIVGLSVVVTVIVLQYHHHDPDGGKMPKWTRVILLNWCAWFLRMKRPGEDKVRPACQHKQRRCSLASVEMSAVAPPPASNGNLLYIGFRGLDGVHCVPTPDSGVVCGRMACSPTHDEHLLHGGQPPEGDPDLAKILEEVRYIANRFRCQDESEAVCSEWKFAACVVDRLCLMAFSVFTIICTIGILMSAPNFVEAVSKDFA
T1 sequence (P58154 whole entry): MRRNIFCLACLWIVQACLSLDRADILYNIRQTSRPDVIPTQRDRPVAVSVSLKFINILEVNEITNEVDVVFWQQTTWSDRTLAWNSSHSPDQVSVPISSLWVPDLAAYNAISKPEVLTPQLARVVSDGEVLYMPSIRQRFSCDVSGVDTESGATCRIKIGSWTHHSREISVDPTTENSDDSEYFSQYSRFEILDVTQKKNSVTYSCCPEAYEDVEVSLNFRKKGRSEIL

In test [1], `CN(C)CCc1cccnc1` had a Kd of 6.03 µM. The Ki in test [2] and in test [3] was 3.16 µM each time.
In turn, `O=C(N[C@@H]1C2CCN(CC2)[C@H]1Cc1cccnc1)c1cccs1` had a dissociation constant (Kd) in test [1] of 0.24 µM. Besides, the Ki is 0.148 µM in test [2] and 0.0437 µM in test [3].
In the case of `O=C(Nc1ccc(Br)cc1)N[C@H]1CN2CCC1CC2`, the Kd in test [1] was 4.9 µM. The inhibitory constant (Ki) in test [2] is 5.13 µM; in test [3], 0.0437 µM.
Taken in the same sequence, the figures for `O=C(N[C@H]1CN2CCC1CC2)c1ccc(Cl)cc1` [PNU-282987] were 3.63 µM, 2.09 µM and 0.0245 µM.
As to `NCCc1cccnc1`, in test [1], the dissociation constant Kd is 148 µM. The inhibition constant (Ki) was 93.3 µM in test [2] and 8.51 µM in test [3].
`N[C@H]1CN2CCC1CC2` had a Kd in test [1] of 74.1 µM. Also, the Ki in test [2] was 110 µM; in test [3], 6.31 µM.
In turn, `O=C(Nc1ccc(Br)cc1)N[C@@H]1C2CCN(CC2)[C@H]1Cc1cccnc1` showed a Kd in test [1] of 0.437 µM. Moreover, the Ki in test [2] is 0.708 µM; in test [3], 0.0257 µM.
`O=C(Nc1ccc(Br)cc1)OCCCc1cccnc1` had a Kd in test [1] of 50.1 µM. For the same compound, the Ki in test [2] is > 10 µM; in test [3], 6.92 µM.
As for `O[C@@H]1C2CCN(CC2)[C@H]1Cc1cccnc1`, in test [1], the affinity, expressed as Kd, was 0.316 µM. Moreover, the Ki in test [2] was 0.251 µM; in test [3], 3.31 µM.
In turn, `N[C@@H]1C2CCN(CC2)[C@H]1Cc1cccnc1` showed a Kd in test [1] of 0.55 µM. Besides, the Ki in test [2] is 0.468 µM; in test [3], 2.29 µM.
The compound `O=C(Nc1ccc(Br)cc1)O[C@H]1CN2CCC1CC2` showed a Kd in test [1] of 4.47 µM. Moreover, the Ki in test [2] is 3.02 µM; in test [3], 0.0389 µM.
For the compound `O=C(N[C@@H]1C2CCN(CC2)[C@H]1Cc1cccnc1)c1cc2ccccc2o1` [BRADANICLINE], the Kd in test [1] was 0.02 µM. The same compound gave a Ki in test [2] of 0.0145 µM.
In the case of `O=C(N[C@@H]1C2CCN(CC2)[C@H]1Cc1cccnc1)c1ccccc1`, the Kd in test [1] was 0.219 µM. In test [2], affinity was put at a Ki of 0.24 µM.
`O=C(Nc1ccccc1)N[C@@H]1C2CCN(CC2)[C@H]1Cc1cccnc1` had a Kd in test [1] of 0.871 µM. For the same compound, the Ki in test [2] is 0.562 µM; in test [3], 0.0288 µM.
In test [1], `O=C(Nc1ccccc1)OCCCc1cccnc1` gave a Kd of 741 µM. Moreover, the Ki in test [2] was 282 µM; in test [3] it was 14.5 µM.
As to `O=C(Nc1ccccc1)N[C@H]1CN2CCC1CC2`, the Kd in test [1] was 18.6 µM. For the same compound, the Ki in test [2] was 5.5 µM; in test [3], 0.11 µM.
Taken in the same sequence, the figures for `O=C(Nc1ccccc1)O[C@@H]1C2CCN(CC2)[C@H]1Cc1cccnc1` were 0.1 µM, 0.0617 µM and 0.0186 µM.
`O=C(Nc1ccccc1)O[C@H]1CN2CCC1CC2` showed a Kd in test [1] of 29.5 µM. The Ki in test [2] was 7.94 µM.
As for `O=C(N[C@@H]1C2CCN(CC2)[C@H]1Cc1cccnc1)Oc1ccccc1`, in test [1], the affinity, expressed as Kd, was 0.347 µM. In addition, the results for the Ki in test [2] and in test [3] were 0.501 µM and 0.0372 µM, respectively.
